# Source: paper PMC12267714 (Nature Communications, 2025)
# Structures can show the parent of a compound that is named as a salt.
# Conditions: mouse, in vivo, 20 mg/kg
smiles,measurement,value
CN(C)C(=O)COC(=O)Cc1ccc(OC(=O)c2ccc(NC(=N)N)cc2)cc1 [camostat mesylate],level in the plasma after oral delivery,no detectable level
